Where a SMILES comes first, the peptide text is derived from it. Bridges are numbered along the chain shown (N, C = ends). Triazole bridges read from a SMILES are 1,4-linked. [ ]: non-standard residue; d: D form. Ala(indol-2-yl) = N[C@@H](Cc1cc2ccccc2[nH]1)C(=O)O; Dap(N3) = [N-]=[N+]=NC[C@H](N)C(=O)O; Aha = [N-]=[N+]=NCC[C@H](N)C(=O)O; Pra = C#CC[C@H](N)C(=O)O
Experiments:
[1] = Inhibition of 5'-UUCACGGAGAA[flc] mRNA binding to biotinylated His6-tagged Yersinia pseudotuberculosis CsrA measured by fluorescence polarization assay
Carbon storage regulator = Carbon storage regulator (Escherichia coli, UniProt P69913); test: Inhibition of 5'-AGACAAGGAUGU[flc] mRNA binding to biotinylated His6-tagged Escherichia coli CsrA measured by fluorescence polarization assay
Chain of Carbon storage regulator (P69913 whole entry): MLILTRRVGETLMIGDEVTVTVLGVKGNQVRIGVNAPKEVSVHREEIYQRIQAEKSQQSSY

[2] = Binding affinity towards biotinylated His6-tagged Yersinia pseudotuberculosis CsrA measured by Microscale thermophoresis assay (MST)
[3] = Inhibition of 5'-UUCACGGAGAA[flc] mRNA binding to biotinylated His6-tagged Yersinia pseudotuberculosis CsrA measured in presence of 5 mM DTT by fluorescence polarization assay

Ac-VASELAW-NH2
IC50 [1]: > 1000 µM

CC(=O)N[C@H]1CSSC[C@@H](C(=O)N[C@@H](Cc2cc3ccccc3[nH]2)C(N)=O)NC(=O)[C@H](CC(C)C)NC(=O)[C@H](CCC(=O)O)NC(=O)[C@H](CO)NC1=O (Ac-CSELC[Ala(indol-2-yl)]-NH2; disulfide 1-5)
IC50 [1]: 128 µM

CC(=O)N[C@H](C(=O)N[C@H]1Cc2cn(nn2)C[C@@H](C(=O)N[C@@H](Cc2c[nH]c3ccccc23)C(N)=O)NC(=O)[C@H](CC(C)C)NC(=O)[C@H](CCC(=O)O)NC(=O)[C@H](CO)NC1=O)C(C)C (Ac-V[Pra]SEL[Dap(N3)]W-NH2; triazole 2-6)
IC50 [1]: 35.3 µM | IC50 (Carbon storage regulator): 4.9 µM

CC(=O)N[C@H](C(=O)N[C@H]1Cc2cnnn2CC[C@@H](C(=O)N[C@@H](Cc2c[nH]c3ccccc23)C(N)=O)NC(=O)[C@H](CC(C)C)NC(=O)[C@H](CCC(=O)O)NC(=O)[C@H](CO)NC1=O)C(C)C
IC50 [1]: 337 µM | IC50 (Carbon storage regulator): 51.6 µM

CC(=O)N[C@H](C(=O)N[C@H]1CCn2nncc2C[C@@H](C(=O)N[C@@H](Cc2c[nH]c3ccccc23)C(N)=O)NC(=O)[C@H](CC(C)C)NC(=O)[C@H](CCC(=O)O)NC(=O)[C@H](CO)NC1=O)C(C)C
IC50 [1]: 309 µM | IC50 (Carbon storage regulator): 83.4 µM

CC[C@H](C)[C@H](NC(=O)[C@H]1CCCCN1C)C(=O)N[C@H](CCc1nc(C(=O)N[C@@H](Cc2ccc(O)cc2)C[C@H](C)C(=O)O)cs1)C(C)C
IC50 [1]: 11 µM

CC(=O)N[C@H](C(=O)N[C@H]1CSSC[C@@H](C(N)=O)NC(=O)[C@H](CC(C)C)NC(=O)[C@H](CCC(=O)O)NC(=O)[C@H](CO)NC1=O)C(C)C (Ac-VCSELC-NH2; disulfide 2-6)
IC50 [1]: > 1000 µM

CC(=O)N[C@H](C(=O)N[C@H]1Cc2cn(nn2)CC[C@@H](C(=O)N[C@@H](Cc2c[nH]c3ccccc23)C(N)=O)NC(=O)[C@H](CC(C)C)NC(=O)[C@H](CCC(=O)O)NC(=O)[C@H](CO)NC1=O)C(C)C (Ac-V[Pra]SEL[Aha]W-NH2; triazole 2-6)
IC50 [1]: 76 µM | IC50 (Carbon storage regulator): 3.4 µM

CC(=O)N[C@H](C(=O)N[C@H]1CSSC[C@@H](C(=O)N[C@@H](Cc2cc3ccccc3[nH]2)C(N)=O)NC(=O)[C@H](CC(C)C)NC(=O)[C@H](CCC(=O)O)NC(=O)[C@H](CO)NC1=O)C(C)C (Ac-VCSELC[Ala(indol-2-yl)]-NH2; disulfide 2-6)
Kd [2]: 10.5 µM | IC50 [1]: 6.9 µM | IC50 (Carbon storage regulator): 182 µM | IC50 [3]: > 1000 µM

CC(=O)N[C@H](C(=O)N[C@H]1CSSC[C@@H](C(=O)N[C@@H](Cc2cc3ccccc3[nH]2)C(N)=O)NC(=O)[C@H](C)NC(=O)[C@H](CCC(=O)O)NC(=O)[C@H](CO)NC1=O)C(C)C (Ac-VCSEAC[Ala(indol-2-yl)]-NH2; disulfide 2-6)
IC50 [1]: 57.9 µM

CC(=O)N[C@H](C(=O)N[C@H]1CSSC[C@@H](C(=O)N[C@@H](Cc2cc3ccccc3[nH]2)C(=O)O)NC(=O)[C@H](CC(C)C)NC(=O)[C@H](CCC(=O)O)NC(=O)[C@H](CO)NC1=O)C(C)C (Ac-VCSELC[Ala(indol-2-yl)]-OH; disulfide 2-6)
IC50 [1]: 17.4 µM

CC(=O)N[C@H](C(=O)N[C@H]1Cn2cc(nn2)C[C@@H](C(=O)N[C@@H](Cc2c[nH]c3ccccc23)C(N)=O)NC(=O)[C@H](CC(C)C)NC(=O)[C@H](CCC(=O)O)NC(=O)[C@H](CO)NC1=O)C(C)C (Ac-V[Dap(N3)]SEL[Pra]W-NH2; triazole 2-6)
IC50 [1]: 92.8 µM | IC50 (Carbon storage regulator): 6.8 µM

CC(=O)N[C@H](C(=O)N[C@H]1CSSC[C@@H](C(=O)N[C@@H](Cc2cc3ccccc3[nH]2)C(N)=O)NC(=O)[C@H](CC(C)C)NC(=O)[C@H](C)NC(=O)[C@H](CO)NC1=O)C(C)C (Ac-VCSALC[Ala(indol-2-yl)]-NH2; disulfide 2-6)
IC50 [1]: 22.8 µM

CC(C)C[C@@H]1NC(=O)[C@H](CCC(=O)O)NC(=O)[C@H](CO)NC(=O)[C@@H](NC(=O)[C@@H](N)C(C)C)CSSC[C@@H](C(=O)N[C@@H](Cc2cc3ccccc3[nH]2)C(N)=O)NC1=O (H-VCSELC[Ala(indol-2-yl)]-NH2; disulfide 2-6)
IC50 [1]: 27.6 µM

CC(=O)N[C@@H](C)C(=O)N[C@H]1CSSC[C@@H](C(=O)N[C@@H](Cc2cc3ccccc3[nH]2)C(N)=O)NC(=O)[C@H](CC(C)C)NC(=O)[C@H](CCC(=O)O)NC(=O)[C@H](CO)NC1=O (Ac-ACSELC[Ala(indol-2-yl)]-NH2; disulfide 2-6)
IC50 [1]: 114 µM

CC(=O)N[C@H](C(=O)N[C@H]1CSSC[C@@H](C(=O)N[C@@H](C)C(N)=O)NC(=O)[C@H](CC(C)C)NC(=O)[C@H](CCC(=O)O)NC(=O)[C@H](CO)NC1=O)C(C)C (Ac-VCSELCA-NH2; disulfide 2-6)
IC50 [1]: > 500 µM

CC(=O)N[C@H](C(=O)N[C@H]1Cc2cnnn2C[C@@H](C(=O)N[C@@H](Cc2c[nH]c3ccccc23)C(N)=O)NC(=O)[C@H](CC(C)C)NC(=O)[C@H](CCC(=O)O)NC(=O)[C@H](CO)NC1=O)C(C)C
IC50 [1]: 178 µM | IC50 (Carbon storage regulator): 48.1 µM

CC(=O)N[C@H](C(=O)N[C@H]1CSSC[C@@H](C(=O)N[C@@H](Cc2cc3ccccc3[nH]2)C(N)=O)NC(=O)[C@H](CC(C)C)NC(=O)[C@H](CCC(=O)O)NC(=O)[C@H](C)NC1=O)C(C)C (Ac-VCAELC[Ala(indol-2-yl)]-NH2; disulfide 2-6)
IC50 [1]: > 1000 µM

— ChEMBL document CHEMBL5131479, “Phage display-based discovery of cyclic peptides against the broad spectrum bacterial anti-virulence target CsrA” (Eur J Med Chem, 2022)
